Results on 2 compounds are retold here after patent publication US5877185A, “Synergistic compositions useful as anti-tumor agents” (priority 1995, dated 1999).

pIC50: −log10 of the molar value.

The subject of one data set is Hep-G2. Kind of data set: cytotoxicity of INO2 BA with and without BSO, Hep-G2. In kind it is cell-based. To be noted: Homo sapiens. The method, then: (§1) The concentration of BSO was 1 mM for all cell lines except HT 144, where the concentration was 0.25 mM. Cells were seeded in the recommended growth medium at a density of 1.5×10^4 cell/cm^2 into 2 cm^2 wells. Drugs were added simultaneously 4 hours after seeding, and incubation was continued for 48 hours at 37° C. in a 5% CO2 atmosphere. For assessment of drug effects cells were detached by trypsinization and counted in a hemacytometer.
(§2) Cell lines Nos. 1-4 were obtained from Dr. C. Benz, University of California, San Francisco. MDA 468 and MCF-7 human mammary cancer lines, MCF-7-B-ADR drug-resistant mammary cancer line, Du 145 drug-resistant human prostate cancer line, HT 144 human melanoma cell line, Hep-G2 human hepatocellular carcinoma line, and PC-12 rat pheochromocytoma line were obtained from the University of California Cell Culture Facility.

The nature of data set [1]: non-toxicity in hamsters, intraperitoneal. In kind it is in vivo.
Another data set concerns MCF-7. The experiment in a line: cytotoxicity of INO2 BA with and without BSO, MCF-7. In kind it is cell-based. To be noted: Homo sapiens. The method, then:
as §1, §2

The test system of data set [2] is SIV-infected CEM ×174 cells. Kind of data set: viability of SIV-infected CEM ×174 cells, tetrazolium (MTT) assay. The class given is cell-based, human. To be noted: day 10. From the text:
In both (A) and (B) the ordinate represents cell viability on day 10 of the assay and the abscissa represents the concentration of INO2 BA in the absence of BSO (FIG. 4A), and in the presence of BSO (FIG. 4B).
CEM ×174 cells (3×10^5 /ml) were infected with 3.75 TCID50 /ml (50% tissue culture infectious dosage per ml of cell suspension) stock solution of SIVmac239 or virus isolates from SIVmac239-infected rhesus macaques on day 0. Uniform infection of cells was ensured by the infection of one cell population only per virus preparation. Three days post-infection, the cells were distributed (500 μl/well) into individual wells of a 24-well plate. Fresh medium containing INO2 BA concentrations ranging from 0 to 300 μM and/or BSO concentrations ranging from 0 to 0.25 mM were added to establish final 1-ml reaction volumes, and the cultures were further incubated for 4 days. […] Cell viability and virus titers in the supernatant were determined on day 10 (3 days after the addition of new cells) by the tetrazolium (MTT) method of Hansen et al., J. Immunol. […]
The viability of infected and uninfected cell cultures was determined by the method of Hansen et al., J. Immunol. […] Following overnight incubation at 37° C., optical absorbance were measured at 570 nm using a microtiter plate reader (Molecular Devices Corp., Sunnyvale, Calif.).

Data set [3] deals with SIV 23686 (AZT-resistant). Kind of data set: AZT-resistant SIV propagation (syncytia formation), SIV 23686. In kind it is cell-based. To be noted: for Syncytia: BSO 0. The method, then:
CEM × 174 (3 × 10^5 /ml) were infected with equal doses o
SIVmac239 or virus isolates from SIVmac239infected rhesus macaques (MMU
23686, 22803). Three days postinfection, INO2 BA concentrations
ranging from 0 to 300 μM with or without BSO were added, and incubated
for an additional 3 days. Cell cultures were then examined for syncytia
formation. The number of syncytia in cell cultures was counted in
arbitration fields under 40× magnification and scored as follows: […]

Data set [4] has as its system L-1210 Murine Leukemia Cells. Kind of data set: effect of nitroso- and nitro-compounds in L-1210 murine leukemia cells (suspension). The class given is cell-based. To be noted: drug exposure 18 hours. The method, then: II. I50 and LD100 Values for Nitroso- and Nitro-Compounds in (A) Mammary Cancer Cells (monolayer cultures) and in (B) L-1210 Murine Leukemia Cells (suspension culture).
Cells were seeded at 5×10^4 to 2×10^5 /ml; drugs were added at the time of seeding; drug exposure was for 18 hours.

The subject of data set [5] is normal bone marrow progenitor cells. To be noted: tumoricidal concentrations; cited from earlier work.
Another data set concerns HIV-1 NC zinc fingers. To be noted: isolated HIV-1 NC zinc fingers and intact HIV-1 virions; cited from earlier work.

Turning to `NC(=O)c1ccc(I)c([N+](=O)[O-])c1` [INO2 BA, 4-iodo-3-nitrobenzamide], the IC100 was 200 µM with Hep-G2 (HepG2, 48 h, read-out: LD100); 200 µM with MCF-7 (MCF7, 48 h, read-out: LD100); more than 200 µM in data set [3] (Simian immunodeficiency virus, 72 h, read-out: INO2 BA concentration abolishing cell fusion (syncytia)). The pIC50 was 3.92 in the data set on Hep-G2 (HepG2, INO2 BA alone, 48 hours, read-out: I50) and 4.00 in the data set with MCF-7 (MCF7, INO2 BA alone, 48 hours, read-out: I50). Further, the toxic effects entry was “no toxic effects” in data set [1] (200 mg/kg intraperitoneally daily for 12 days) and “without toxic effects” in data set [1] (200 mg/kg intraperitoneally daily for 14 days, twelve hamsters). Further, the apparent cell viability result in data set [2] is on record as “protected”. The Syncytia entry in data set [3] (INO2 BA 25 μM) is “++ (10-20)”; in data set [3] (INO2 BA 50 μM), “++ (10-20)”; in data set [3] (INO2 BA 100 μM), “++ (10-20)”; in data set [3] (INO2 BA 200 μM), “+ (1-9)”; in data set [3] (INO2 BA 300 μM), “- (0)”. In data set [3] (with 0.01 mM BSO), the “inhibitory concentration of INO2 BA (syncytia)” value was found to be 50 µM.

In data set [4], `NC(=O)c1cccc(N=O)c1` [NOBA, 3-nitrosobenzamide] returned an I50 of 7.5 nanomoles/10^5 cells and an LD100 of 15 nanomoles/10^5 cells. The “effect on normal bone marrow progenitor cells” value in data set [5] was “relatively harmless”. Further, the zinc ejection entry in the data set on HIV-1 NC zinc fingers was “eject zinc”.
